Reference: paper PMC11844072, “Novel 5,6-dichlorobenzimidazole derivatives as dual BRAFWT and BRAFV600E inhibitors: design, synthesis, anti-cancer activity and molecular dynamics simulations” (BMC Chemistry, 2025)

Columns and labels:
Test in all cases: NCI 60 single concentration growth inhibition
Assay type in all cases: cell-based, human
A498 = details: Homo sapiens, A498, Renal cancer, read-out: GI%
Procedure, shortened: (§1)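 Read-out is SRB absorbance at 515 nm after TCA fixation (10% for adherent lines, 16% for suspension lines). Drugs were applied for 48 h following a 24 h plating period. Growth percentages came from time-zero, control and treated absorbances.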

CAKI-1 = details: Homo sapiens, CAKI-1, Renal cancer, read-out: GI%
Procedure, shortened: as §1

CCRF-CEM = details: Homo sapiens, Leukemia, read-out: GI%
Procedure, shortened: as §1

HCT-116 = details: Homo sapiens, HCT-116, Colon cancer, read-out: GI%
Procedure, shortened: as §1

HL-60(TB) = details: Homo sapiens, Leukemia, read-out: GI%
Procedure, shortened: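 Suspension cells such as leukaemia lines are fixed with 80% TCA added to settled cells, to 16% final, while other lines are fixed at 10% TCA. Both are then SRB-stained after 48 h of drug exposure at 37 °C.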

HOP-62 = details: Homo sapiens, HOP-62, Non-small cell lung cancer, read-out: GI%
Procedure, shortened: as §1

HS 578T = details: Homo sapiens, Breast cancer, read-out: GI%
Procedure, shortened: as §1

MDA-MB-231/ATCC = details: Homo sapiens, Breast cancer, read-out: GI%
Procedure, shortened: as §1

MDA-MB-468 = details: Homo sapiens, MDA-MB-468, Breast cancer, read-out: GI%
Procedure, shortened: as §1

NCI-H23 = details: Homo sapiens, NCI-H23, Non-small cell lung cancer, read-out: GI%
Procedure, shortened: as §1

SF-539 = details: Homo sapiens, SF-539, CNS cancer, read-out: GI%
Procedure, shortened: as §1

SK-MEL-28 = details: Homo sapiens, SK-MEL-28, Melanoma, read-out: GI%
Procedure, shortened: as §1

SK-MEL-2 = details: Homo sapiens, SK-MEL-2, Melanoma, read-out: GI%
Procedure, shortened: as §1

SK-MEL-5 = details: Homo sapiens, SK-MEL-5, Melanoma, read-out: GI%
Procedure, shortened: as §1

SK-OV-3 = details: Homo sapiens, SK-OV-3, Ovarian cancer, read-out: GI%
Procedure, shortened: as §1

SR = details: Homo sapiens, Leukemia, read-out: GI%
Procedure, shortened: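 Cells are plated and left 24 h, and a time-zero plate is fixed at drug addition. Compound is then added for 48 h, the cells are fixed in cold TCA and stained with 0.4% SRB, and bound dye is solubilised in 10 mM Tris for reading at 515 nm.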

UACC-62 = details: Homo sapiens, UACC-62, Melanoma, read-out: GI%
Procedure, shortened: as §1

HCC-2998 = details: Homo sapiens, HCC-2998, Colon cancer, read-out: GI%
Description: (§2) The synthesized dichlorobenzimidazoles 10a–p were assayed for their influence on divers cancer cell lines according to the method presented in the Additional file A.
(§3) 5. Screening of cytotoxic activity against a panel of sixty human tumor cell lines
(§4) The selected compounds by NCI were evaluated for their anticancer activity in a two-stage process. First, these compounds were screened against the full NCI 60 cell lines panel at a single high dose of 10 µM. Then, the output from the single dose screen is reported as a mean graph. […]
(§5) Assay protocol. The human tumor cell lines of the cancer screening panel are grown in RPMI 1640 medium containing 5% fetal bovine serum and 2 mM L-glutamine. For a typical screening experiment, cells are inoculated into 96 well microtiter plates in 100 µL at plating densities ranging from 5000 to 40,000 cells/well depending on the doubling time of individual cell lines. After cell inoculation, the microtiter plates are incubated at 37 °C, 5% CO 2, 95% air and 100% relative humidity for 24 h prior to addition of the experimental drugs.
(§6) After 24 h, two plates of each cell line are fixed in situ with TCA, to represent a measurement of the cell population for each cell line at the time of drug addition (Tz). The experimental drugs are solubilized in dimethyl sulfoxide at 400-fold the desired final maximum test concentration and stored frozen prior to use. At the time of drug addition, an aliquot of frozen concentrate is thawed and diluted to twice the desired final maximum test concentration with complete medium containing 50 µg/mL gentamicin. Additional four, 10-fold or ½ log serial dilutions are made to provide a total of five drug concentrations plus control.
(§7) Aliquots of […] of these different drug dilutions are added to the appropriate microtiter wells already containing […] of medium, resulting in the required final drug concentrations.
(§8) Following drug addition, the plates are incubated for an additional 48 h at 37 °C, 5% CO 2, 95% air, and 100% relative humidity. For adherent cells, the assay is terminated by the addition of cold TCA.
(§9) Cells are fixed in situ by the gentle addition of 50 µL of cold 50% (w/v) TCA (final concentration, 10% TCA) and incubated for 60 min at 4 °C. The supernatant is discarded, and the plates are washed five times with tap water and air dried. Sulforhodamine B (SRB) solution ([…]) at 0.4% (w/v) in 1% acetic acid is added to each well, and plates are incubated for 10 min at room temperature. After staining, unbound dye is removed by washing five times with 1% acetic acid and the plates are air dried. Bound stain is subsequently solubilized with 10 mM trizma base, and the absorbance is read on an automated plate reader at a wavelength of 515 nm. For suspension cells, the methodology is […]
(§10) the same except that the assay is terminated by fixing settled cells at the bottom of the wells by gently adding 50 µl of 80% TCA (final concentration, 16% TCA). Using the seven absorbance measurements [time zero, (Tz), control growth, (C), and test growth in the presence of drug at the five concentration levels (Ti)], the percentage growth is calculated at each of the drug concentrations […]
(§11) Percentage growth inhibition is calculated as: [(Ti Tz)/(C–Tz)] x 100 for concentrations for which Ti>/=Tz and [(Ti-Tz)/Tz] x 100 for concentrations for which Ti < Tz. […]
(§12) Results for each compound were reported as a mean graph of the percent growth of the treated cells when compared to the untreated control cells. There after obtaining the results for one dose assay, analysis of historical Development Therapeutics Programme (DTP) was performed and compounds which satisfies predetermined threshold inhibition criteria is selected for NCI full panel 5 dose assay.

SNB-19 = details: Homo sapiens, SNB-19, CNS cancer, read-out: GI%
Description: as §2, §3, §4, §5, §6, §7, §8, §9, §10, §11, §12

Compound	inhibition at 10 µM (A498) [%]	inhibition at 10 µM (CAKI-1) [%]	inhibition at 10 µM (CCRF-CEM) [%]	inhibition at 10 µM (HCT-116) [%]	inhibition at 10 µM (HL-60(TB)) [%]	inhibition at 10 µM (HOP-62) [%]	inhibition at 10 µM (HS 578T) [%]	inhibition at 10 µM (MDA-MB-231/ATCC) [%]	inhibition at 10 µM (MDA-MB-468) [%]	inhibition at 10 µM (NCI-H23) [%]	inhibition at 10 µM (SF-539) [%]	inhibition at 10 µM (SK-MEL-28) [%]	inhibition at 10 µM (SK-MEL-2) [%]	inhibition at 10 µM (SK-MEL-5) [%]	inhibition at 10 µM (SK-OV-3) [%]	inhibition at 10 µM (SR) [%]	inhibition at 10 µM (UACC-62) [%]	inhibition at 10 µM (HCC-2998) [%]	inhibition at 10 µM (SNB-19) [%]
COC(=O)COc1cccc(C=NNC(=O)Cn2c(-c3ccc(OC)cc3)nc3cc(Cl)c(Cl)cc32)c1 [Compound 10g, Methyl-2-(3-((2-(2-(5,6-dichloro-2-(4-methoxyphenyl)-1H-benzo[d]imidazol-1-yl)acetyl)hydrazono)methyl)phenoxy)acetate]	< 5	10.5	20.9	10.6	< 5	< 5	13.9	21.6	112	< 5	26.5	< 5	< 5	8.95	< 5	78.3	< 5	44	< 5
COC(=O)COc1ccc(C=NNC(=O)Cn2c(-c3ccc(OC)cc3)nc3cc(Cl)c(Cl)cc32)cc1 [Compound 10h, Methyl-2-(4-((2-(2-(5,6-dichloro-2-(4-methoxyphenyl)-1H-benzo[d]imidazol-1-yl)acetyl)hydrazono)methyl)phenoxy)acetate]	< 5	5.89	28.1	10.8	< 5	< 5	72.2	94.5	177	< 5	39.2	31.7	26.4	< 5	< 5	81.1	< 5	142	8.19
COc1ccc(-c2nc3cc(Cl)c(Cl)cc3n2CC(=O)NN=Cc2ccc(OC)c(O)c2)cc1 [Compound 10k, 2-(5,6-Dichloro-2-(4-methoxyphenyl)-1H-benzo[d]imidazol-1-yl)-N'-(3-hydroxy-4-methoxybenzylidene)acetohydrazide]	29.7	48.2	43.8	22	60.8	< 5	27.4	33.9	71.2	21.1	29.1	17.3	40.2	62.2	< 5	52.2	35.4	32.2	40.3
COc1ccc(-c2nc3cc(Cl)c(Cl)cc3n2CC(=O)NN=Cc2ccc(O)c(OC)c2)cc1 [Compound 10l, 2-(5,6-Dichloro-2-(4-methoxyphenyl)-1H-benzo[d]imidazol-1-yl)-N'-(4-hydroxy-3-methoxybenzylidene)acetohydrazide]	16.2	55.3	46.9	31.6	44.5	12.4	32.7	17.2	99	15	32.4	7.48	18.6	57.9	6.44	49.1	33.6	18.2	37.3
COC(=O)COc1cc(C=NNC(=O)Cn2c(-c3ccc(OC)cc3)nc3cc(Cl)c(Cl)cc32)ccc1OC [Compound 10o, Methyl-2-(5-((2-(2-(5,6-dichloro-2-(4-methoxyphenyl)-1H-benzo[d]imidazol-1-yl)acetyl)hydrazono)methyl)-2-methoxyphenoxy)acetate]	< 5	37	16.9	22.9	< 5	< 5	128	90.1	118	7.03	80	< 5	26.6	6.53	24.1	90.9	24.3	83.8	< 5
COC(=O)COc1ccc(C=NNC(=O)Cn2c(-c3ccc(OC)cc3)nc3cc(Cl)c(Cl)cc32)cc1OC [Compound 10p, Methyl-2-(4-((2-(2-(5,6-dichloro-2-(4-methoxyphenyl)-1H-benzo[d]imidazol-1-yl)acetyl)hydrazono)methyl)-2-methoxyphenoxy)acetate]	< 5	16.5	21.1	25.1	< 5	< 5	118	64.6	159	< 5	101	6.03	24.1	6.06	< 5	92.8	36.5	86.1	< 5
